Patent US12043600B2, “Microbiocidal compounds” (SYNGENTA CROP PROTECTION AG, priority 2018, dated 2024)
Read-outs that look alike come from different tables or passages of the source.

Tests used:
[1] = tested on: Botryotinia fuckeliana (Botrytis cinerea); test: Botryotinia fuckeliana (Botrytis cinerea)/Liquid Culture (Gray Mould); assay type: cell-based; settings: liquid culture, compared to untreated control
Description: Conidia of the fungus from cryogenic storage are directly mixed into nutrient broth (Vogels broth). After placing a (DMSO) solution of test compound into a microtiter plate (96-well format), the nutrient broth containing the fungal spores is added.

[2] = tested on: Glomerella lagenarium (Colletotrichum lagenarium); test: Glomerella lagenarium (Colletotrichum lagenarium)/Liquid Culture (Anthracnose); assay type: cell-based; settings: Colletotrichum orbiculare, liquid culture, compared to untreated control
[3] = tested on: Monographella nivalis (Microdochium nivale); test: Monographella nivalis (Microdochium nivale)/Liquid Culture (Foot Rot Cereals); assay type: cell-based; settings: liquid culture, compared to untreated control
In short: (§1)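 PDB + cryo-stored conidia; compound in DMSO pre-plated, spore broth added on top.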

[4] = tested on: Mycosphaerella arachidis (Cercospora arachidicola); test: Mycosphaerella arachidis (Cercospora arachidicola)/Liquid Culture (Early Leaf Spot); assay type: cell-based; settings: liquid culture, compared to untreated control
In short: as §1

[5] = tested on: Phytophthora infestans; test: whole plant or invertebrate; assay type: in vivo; settings: in Solanum lycopersicum, foliar, read-out: control of Phytophthora infestans
[6] = tested on: Plasmopara viticola; test: whole plant or invertebrate; assay type: in vivo; settings: foliar, read-out: control of Plasmopara viticola
[7] = tested on: Puccinia recondita f. sp. tritici; test: Puccinia recondita f. sp. tritici/Wheat/Leaf Disc Curative (Brown Rust); assay type: in vivo; settings: foliar, wheat leaf disc curative, compared to untreated control
In short: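 Formulated compound, diluted in water, is applied to inoculated wheat cv. Kanzler leaf segments on agar one day post-inoculation (pre-incubation dark, 19° C, 75% rh). After 6-8 days at 19° C, 75% rh and 12 h/12 h light, activity is rated as percent disease control relative to untreated segments.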

[8] = tested on: Puccinia recondita f. sp. tritici; test: Puccinia recondita f. sp. tritici/Wheat/Leaf Disc Preventative (Brown Rust); assay type: in vivo; settings: foliar, 200 ppm, wheat leaf disc preventative, compared to untreated control, read-out: control of Puccinia recondita f. sp. tritici
[9] = tested on: Magnaporthe grisea (Pyricularia oryzae); test: whole plant or invertebrate; assay type: in vivo; settings: foliar, read-out: control of Magnaporthe grisea
[10] = tested on: Pythium ultimum; test: Pythium ultimum/Liquid Culture (Seedling Damping Off); assay type: cell-based; settings: Globisporangium ultimum, liquid culture, compared to untreated control
Description: Mycelia fragments and oospores of a newly grown liquid culture of the fungus are directly mixed into nutrient broth (PDB potato dextrose broth). After placing a (DMSO) solution of test compound into a microtiter plate (96-well format), the nutrient broth containing the fungal mycelia/spore mixture is added.

[11] = tested on: Mycosphaerella graminicola (Septoria tritici); test: Mycosphaerella graminicola (Septoria tritici)/Liquid Culture (Septoria Blotch); assay type: cell-based; settings: Zymoseptoria tritici; 20 ppm; liquid culture; compared to untreated control
In short: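 Results given as % disease control: test compound in DMSO was placed in wells first, then potato dextrose broth carrying cryostored fungal conidia was added.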

[12] = tested on: Alternaria solani; test: Alternaria solani/Tomato/Leaf Disc (Early Blight); assay type: in vivo; settings: foliar, tomato leaf disc, compared to untreated control
In short: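 Protective leaf-disc test: compound sprayed onto tomato cv. Baby disks, spore inoculation following after 2 days. Disks kept at 80% rh, 12/12 h light/dark, 23° C. day and 21° C. night; activity read as percent disease control relative to untreated checks 5-7 days post-application.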

[13] = tested on: Blumeria graminis f. sp. tritici (Erysiphe graminis f. sp. tritici); test: Blumeria graminis f. sp. tritici/Wheat/Leaf Disc Preventative (Powdery Mildew on Wheat); assay type: in vivo; settings: foliar, wheat leaf disc preventative, compared to untreated control
In short: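 Preventative leaf-disc test: percent disease control versus untreated leaf segments read 6-8 days post-application. Compound spray applied to wheat cv. Kanzler segments on agar one day before shaking infected plants over them; incubation at 20° C and 60% rh, 24 h darkness then 12 h light/12 h dark cycles.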

[14] = tested on: Phaeosphaeria nodorum (Septoria nodorum); test: Phaeosphaeria nodorum (Septoria nodorum)/Wheat/Leaf Disc Preventative (Glume Blotch); assay type: in vivo; settings: Parastagonospora nodorum, foliar, wheat leaf disc preventative, compared to untreated control
In short: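 Preventative test: compound spray first, then spore inoculation after 2 days on cv. Kanzler wheat leaf segments. Incubation in a climate cabinet at 20 °C and 75% rh under a 12 h light/12 h dark cycle. Activity rated as % control relative to untreated discs at 5–7 days post-application.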

[15] = tested on: Thanatephorus cucumeris (Rhizoctonia solani); test: Thanatephorus cucumeris (Rhizoctonia solani)/Liquid Culture (Foot Rot, Damping-Off); assay type: cell-based; settings: liquid culture, compared to untreated control
Description: Mycelia fragments of a newly grown liquid culture of the fungus are directly mixed into nutrient broth (PDB potato dextrose broth). After placing a (DMSO) solution of the test compounds into a microtiter plate (96-well format), the nutrient broth containing the fungal material is added.

[16] = tested on: Sclerotinia sclerotiorum; test: Sclerotinia sclerotiorum/Liquid Culture (Cottony Rot); assay type: cell-based; settings: liquid culture, compared to untreated control
Description: Mycelia fragments of a newly grown liquid culture of the fungus are directly mixed into nutrient broth (PDB potato dextrose broth). After placing a (DMSO) solution of test compound into a microtiter plate (96-well format) the nutrient broth containing the fungal material is added.

[17] = Photostability assay (Atlas Suntest); assay type: physicochemical; settings: Suntest 750 W/m^2, spotted on microscope slides
In short: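 Compound (2 μl of 1 g/L methanol stock) spotted on glass slides and irradiated at 750 W/m^2 in a Suntest. Slides were washed with H2O:MeCN:THF 50:40:10 and analysed by reverse-phase UPLC-PDA; peak area versus initial gave % parent remaining at 3 hours.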

[18] = tested on: Phakopsora pachyrhizi; test: Phakopsora pachyrhizi/Soybean/Preventative (Soybean Rust); assay type: in vivo; settings: 288 h
[19] = foliar, soybean leaf disc preventative, compared to untreated control, read-out: control of Phakopsora pachyrhizi

| SMILES | inhibition of growth at 20 ppm [1] | inhibition of growth at 20 ppm [2] | inhibition of growth at 20 ppm [3] | inhibition of growth at 20 ppm [4] | pest or weed control at 200 ppm [5] | pest or weed control at 200 ppm [6] | pest or weed control at 200 ppm [7] | pest or weed control at 200 ppm [8] | pest or weed control at 200 ppm [9] | inhibition of growth at 20 ppm [10] | inhibition of growth at 20 ppm [11] | pest or weed control at 200 ppm [12] | melting point | pest or weed control at 200 ppm [13] | pest or weed control at 200 ppm [14] | % Parent Remaining @ 3 hrs [17] | pest or weed control at 200 ppm [18, 19] | further results |
| --- | --- | --- | --- | --- | --- | --- | --- | --- | --- | --- | --- | --- | --- | --- | --- | --- | --- | --- |
| CO/C=C(\Oc1cc(-n2ccc(C3CCCC3)n2)ccc1C)C(=O)OC [Compound E-5, methyl (Z)-2-[5-(3-cyclopentylpyrazol-1-yl)-2-methyl-phenoxy]-3-methoxy-prop-2-enoate] | ≥ 80% | ≥ 80% | ≥ 80% | ≥ 80% | ≥ 80% | ≥ 80% | ≥ 80% | ≥ 80% | ≥ 80% | ≥ 80% | ≥ 80% | – | – | – | – | – | – | – |
| CO/C=C(\Oc1cc(-n2ccc(C(C)C)n2)cc(OC)c1C)C(=O)OC [Compound E-21, methyl (Z)-2-[5-(3-isopropylpyrazol-1-yl)-3-methoxy-2-methyl-phenoxy]-3-methoxy-prop-2-enoate] | – | ≥ 80% | ≥ 80% | ≥ 80% | ≥ 80% | ≥ 80% | ≥ 80% | ≥ 80% | – | ≥ 80% | ≥ 80% | ≥ 80% | 90 to 92 °C | – | – | – | – | – |
| CO/C=C(\Oc1cc(-n2ccc(C(C)(F)F)n2)ccc1C)C(=O)OC [Compound E-68, methyl (Z)-2-[5-[3-(1,1-difluoroethyl)pyrazol-1-yl]-2-methyl-phenoxy]-3-methoxy-prop-2-enoate] | – | ≥ 80% | ≥ 80% | ≥ 80% | – | ≥ 80% | ≥ 80% | ≥ 80% | ≥ 80% | ≥ 80% | ≥ 80% | ≥ 80% | 119 to 121 °C | ≥ 80% | ≥ 80% | 40% | – | inhibition of growth at 20 ppm [15]: ≥ 80%; inhibition of growth at 20 ppm [16]: ≥ 80% |
| CO/C=C(\Oc1cc(-n2cc(C3CCC3)cn2)ccc1C)C(=O)OC [Compound E-80, methyl (Z)-2-[5-(4-cyclobutylpyrazol-1-yl)-2-methyl-phenoxy]-3-methoxy-prop-2-enoate] | ≥ 80% | ≥ 80% | ≥ 80% | ≥ 80% | ≥ 80% | ≥ 80% | ≥ 80% | ≥ 80% | ≥ 80% | ≥ 80% | ≥ 80% | ≥ 80% | – | ≥ 80% | – | – | ≥ 50% | – |
| CO/C=C(\Oc1cc(-n2ccc(C(C)C)n2)ccc1C)C(=O)OC [Compound E-92, methyl (Z)-2-[5-(3-isopropylpyrazol-1-yl)-2-methyl-phenoxy]-3-methoxy-prop-2-enoate] | ≥ 80% | ≥ 80% | ≥ 80% | ≥ 80% | ≥ 80% | ≥ 80% | – | – | ≥ 80% | ≥ 80% | ≥ 80% | – | 88 to 91 °C | ≥ 80% | ≥ 80% | 33% | – | pest or weed control at 0.6 ppm ([18]; Phakopsora pachyrhizi (Soybean rust), 0.6 ppm): 0%; pest or weed control at 2 ppm ([18]; Phakopsora pachyrhizi (Soybean rust), 2 ppm): 0%; pest or weed control at 6 ppm ([18]; Phakopsora pachyrhizi (Soybean rust), 6 ppm): 35%; pest or weed control at 20 ppm ([18]; Phakopsora pachyrhizi (Soybean rust), 20 ppm): 90%; pest or weed control at 60 ppm ([18]; Phakopsora pachyrhizi (Soybean rust), 60 ppm): 100%; pest or weed control at 200 ppm ([18]; Phakopsora pachyrhizi (Soybean rust), read-out: control (%)): 100% |
| CO/C=C(\Oc1cc(-n2ccc(C(C)(C)C)n2)ccc1C)C(=O)OC [Compound E-103, methyl (Z)-2-[5-(3-tert-butylpyrazol-1-yl)-2-methyl-phenoxy]-3-methoxy-prop-2-enoate] | ≥ 80% | ≥ 80% | ≥ 80% | ≥ 80% | ≥ 80% | ≥ 80% | ≥ 80% | ≥ 80% | ≥ 80% | ≥ 80% | ≥ 80% | – | – | ≥ 80% | ≥ 80% | – | ≥ 50% | – |
